Source: patent EP0705603A1, “Use of non-toxic cysteine sulfoxide derivatives in the treatment of cancer or for enhancing the T-cell count” (priority 1994, dated 1996)

Test: Toxicity after intravenous administration to patients
Format: in vivo, patient
Procedure: Aqueous solutions of t-butyl hydroperoxide are prepared by dissolving 50 ml of a 70% aqueous solution of t-butyl hydroperoxide in 1 litre of normal (0.9%) saline. 15-30 ml of this solution is given intravenously over a period of up to about 15 minutes.
Aqueous solutions of methyl, ethyl, propyl and butyl cysteine sulfoxide are prepared by dissolving 100 gram of the respective sulfoxide in 1 litre of normal (0.9%) saline. 30-60 ml of this solution (delivering an approximate […] dose of the sulfoxide) is given intravenously.
An aqueous solution of L-cystine is prepared by first dissolving 80 grams of N-methyl-D-glucamine in 1 litre of normal (0.9%) saline and the dissolving in 40 g of L-cystine. 50 to 60 ml of the solution (delivering an approximately 2 g dose of cystine) is given intravenously.
An aqueous solution of oxidised glutathione is prepared by dissolving 40 grams in 1 litre of normal (0.9%) saline. 50-60 ml of this solution (delivering an approximately 2 g dose of oxidised glutathione) is given intravenously.
The t-butyl hydroperoxide solution is administered by intravenous infusion over a period of up to about 15 minutes. This is then followed immediately by intravenous infusion of the sulfoxide, optionally with cystine and/or oxidised glutathione solutions, and then (within three minutes) Ultra High Frequency microwave radiation is commenced and is delivered over the next 20 - 30 minutes. 1 or 2 rest intervals of 2 to 3 minutes each are permitted during this application. Three such treatment sessions may be undertaken per day.
No immediate or late changes in blood pressure, renal or liver function, electrolytes or haematology have been seen from the method.

SMILES | symptoms suggestive of any toxicity (human, in vivo, iv) | further results
N[C@@H](CSSC[C@H](N)C(=O)O)C(=O)O [L-cystine] | No symptoms suggestive of any toxicity | NOAEL (human, in vivo, iv): > 100 mg/kg
C=CC[S+]([O-])CC(N)C(=O)O (stereo not drawn) [allyl cysteine sulfoxide] | No symptoms suggestive of any toxicity | 
CCCC[S+]([O-])CC(N)C(=O)O (stereo not drawn) [butyl cysteine sulfoxide] | No symptoms suggestive of any toxicity | 
CC[S+]([O-])CC(N)C(=O)O (stereo not drawn) [ethyl cysteine sulfoxide] | No symptoms suggestive of any toxicity | 
C[S+]([O-])CC(N)C(=O)O (stereo not drawn) [methyl cysteine sulfoxide] | No symptoms suggestive of any toxicity | 
CCC[S+]([O-])CC(N)C(=O)O (stereo not drawn) [propyl cysteine sulfoxide] | No symptoms suggestive of any toxicity | 
CC(C)(C)OO [t-butyl hydroperoxide] |  | volume of saline solution of oxidising agent that can safely and effectively be administered (70% t-butyl hydroperoxide in water diluted in normal (0.9%) saline, intravenous, over about 5 minutes): 60 mL; symptoms suggestive of any toxicity (after the intravenous administration): No symptoms suggestive of any toxicity
